How the values were obtained:
[1] = test system: U-87 cells (IDH1 wild-type); test: Cytotoxicity, sphere culture with LDL, combination with ezetimibe (ATP); assay type: cell-based, human; details: 7 days, LDL 5 µg/mL
Experimental: U-87 cells were cultured for 7 days in sphere medium supplemented with LDL at a concentration of 5 µg/mL, with either ezetimibe (a cholesterol absorption inhibitor) added at 3.3, 10, or 30 µM, Compound 1 added at 1 µM, or a combination of both agents. Cell viability was calculated in the same manner as in Example 12, and the cytotoxic effects of each treatment were compared between single-agent and combination conditions.

EBP = target: T1, EBP (Homo sapiens, UniProt Q15125); test: Phase 1 clinical trial: pharmacodynamics, Lathosterol/Zymostenol (L/Z) ratio; assay type: in vivo; details: for decrease of mean L/Z ratio: Cycle 1 Day 2 (C1D2), as of April 2024
T1 construct: endogenous in cells; host or cells: Patients with recurrent malignant glioma (WHO grade III or IV), in vivo; sterol ratio assessed in serum
Source text: As of September 2023, pharmacodynamic assessments had clearly shown that Compound 1 inhibited the target, at least in serum. […] (Figure 5)

B16 cells = test: Efficacy in anti-PD-1 antibody-resistant in vivo model; set-up: species or system C57BL/6J mice; details: 10 mg/kg, once daily; B16 intradermal; versus nivolumab 5 mg/kg once weekly
Experimental: B16 cells (5 x 10^5 cells; obtained from the JCRB Cell Bank) were intradermally implanted into C57BL/6J mice to establish tumors. On day 12 after implantation, administration of Compound 1 (10 mg/kg, once daily) or an anti-PD-1 antibody (nivolumab, 5 mg/kg, once weekly) was initiated, and the efficacy of each monotherapy group was compared with that of the control group.

T1 sequence (Q15125 whole entry): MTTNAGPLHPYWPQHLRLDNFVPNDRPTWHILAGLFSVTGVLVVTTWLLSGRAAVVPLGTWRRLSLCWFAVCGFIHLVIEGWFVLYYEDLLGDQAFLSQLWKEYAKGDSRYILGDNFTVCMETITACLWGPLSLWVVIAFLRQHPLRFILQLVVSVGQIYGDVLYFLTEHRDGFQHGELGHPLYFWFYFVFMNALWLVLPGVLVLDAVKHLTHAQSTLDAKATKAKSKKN

CC1(C)Oc2cc(Cl)ccc2[C@@H]2OCC3(CCN(CCn4ccnc4)CC3)C[C@H]21 [Compound 1, (4'aR,10'bR)-8'-chloro-1-[2-(1H-imidazol-1-yl)ethyl]-5',5'-dimethyl-4'a,10'b-dihydro-2'H,4'H,5'H-spiro[piperidine-4,3'-pyrano[3,2-c][1]benzopyran] diphosphate]
cytotoxicity of the combination of Compound 1 and ezetimibe ([1]; Compound 1 1 µM + ezetimibe 3.3, 10, or 30 µM): potent cytotoxic effects
cytotoxicity, single agent ([1]; Compound 1 at 1 µM): low cytotoxicity
reduction in the L/Z ratio versus lower dose levels (EBP; 480 mg per day (240 mg BID)): did not show a greater reduction in the L/Z ratio than those at the 180-360 mg QD dose levels
decrease of mean L/Z ratio (EBP; 20 mg QD): 70%
decrease of mean L/Z ratio (EBP; 180 mg and 240 mg QD): 95-97%
decrease of mean L/Z ratio (EBP; 360 mg QD): 97.5%
decrease of mean L/Z ratio (EBP; 40-120 mg QD): 85-91%
decrease of L/Z ratio (EBP; Cycle 1 Day 8 (C1D8), 20-360 mg QD, maintained in subsequent cycles): approximately 100%
blood L/Z ratio across dose groups (EBP; from the 180 mg QD to 360 mg QD dose groups): remained at a similar level
decrease of the ratio of lathosterol and zymostenol (L/Z ratio) (EBP; serum, starting from 40 mg QD cohort, as of September 2023): over 80%
tumor growth inhibition as monotherapy (B16 cells): statistically significant inhibition of tumor growth compared with the nivolumab-treated group
